Source: ChEMBL document CHEMBL5260835, “Therapeutic potential of quercetin as a cardiovascular agent” (2018)

Key:
Rattus norvegicus [1] = experiment: Hypotensive effect in rat at 100 nmol/kg,po; type: functional
Mus musculus [2] = organism: Mus musculus; experiment: Antiatherosclerotic activity in Apoe-/- mouse assessed as attenuation of coronary artery illness relative to control; type: functional
Oryctolagus cuniculus [3] = organism: Oryctolagus cuniculus; experiment: Cardioprotective activity in rabbit model assessed as resistance relaxation at 8 uM; type: functional; design: scale not given: the % may be the effect or the level left
Oryctolagus cuniculus [4] = organism: Oryctolagus cuniculus; experiment: Cardioprotective activity in rabbit model assessed as conductivity relaxation at 8 uM; type: functional; design: scale not given: the % may be the effect or the level left
Oryctolagus cuniculus [5] = organism: Oryctolagus cuniculus; experiment: Cardioprotective activity in rabbit model assessed as conductivity relaxation at 30 uM; type: functional; design: scale not given: the % may be the effect or the level left
Mus musculus [6] = organism: Mus musculus; experiment: Effect on triglyceride level in serum of high fat diet induced mouse model assessed as reduction in triglycerides level relative to control; type: functional; design: scale not given: the % may be the effect or the level left
Mus musculus [7] = experiment: Cardioprotection in […] assessed as decrease in mean arterial pressure at 5 to 10 mg/kg, po measured after 13 weeks relative control; type: functional; design: scale not given: the % may be the effect or the level left; conditions: dose 5-10 mg/kg
Oryctolagus cuniculus [8] = organism: Oryctolagus cuniculus; experiment: Cardioprotective activity in rabbit model assessed as resistance relaxation at 30 uM; type: functional; design: scale not given: the % may be the effect or the level left
Oryctolagus cuniculus [9] = organism: Oryctolagus cuniculus; experiment: Cardioprotective activity in rabbit model assessed as resistance relaxation at 5.6 uM; type: functional; design: scale not given: the % may be the effect or the level left
Mus musculus [10] = organism: Mus musculus; experiment: Effect on palmitic level in serum of high fat diet induced mouse model assessed as reduction in palmitic level relative to control; type: functional; design: scale not given: the % may be the effect or the level left
Mus musculus [11] = organism: Mus musculus; experiment: Effect on oleic level in serum of high fat diet induced mouse model assessed as reduction in oleic level relative to control; type: functional; design: scale not given: the % may be the effect or the level left
Oryctolagus cuniculus [12] = organism: Oryctolagus cuniculus; experiment: Cardioprotective activity in rabbit model assessed as conductivity relaxation at 5.6 uM; type: functional; design: scale not given: the % may be the effect or the level left
Mus musculus [13] = organism: Mus musculus; experiment: Effect on linoleic level in serum of high fat diet induced mouse model assessed as reduction in linoleic level relative to control; type: functional; design: scale not given: the % may be the effect or the level left
Rattus norvegicus [14] = organism: Rattus norvegicus; experiment: Activation of rat Na(+)/K(+) ATPase assessed as increase in maximum velocity relative to control

Structure (SMILES): C[C@H](CS)C(=O)N1CCC[C@H]1C(=O)O [CAPTOPRIL]
- Activity (Rattus norvegicus [1]): 29.7 mmHg

Structure (SMILES): O=c1c(O)c(-c2ccc(O)c(O)c2)oc2cc(O)cc(O)c12 [QUERCETIN]
- Activity (Mus musculus [2]): 86%
- Activity (Oryctolagus cuniculus [3]): -47%
- Activity (Oryctolagus cuniculus [4]): -3.2%
- Activity (Oryctolagus cuniculus [5]): -72%
- Activity (Mus musculus [6]): 14%
- Activity (Mus musculus [7]): -12%
- Activity (Oryctolagus cuniculus [8]): -82%
- Activity (Oryctolagus cuniculus [9]): -3.2%
- Activity (Mus musculus [10]): 9%
- Activity (Mus musculus [11]): 9%
- Activity (Oryctolagus cuniculus [12]): -20%
- Activity (Mus musculus [13]): 9%
- Activity (Rattus norvegicus [14]): 15%
